Assay results: patent US7902354B2, “Lapachone compounds and methods of use thereof” (ArQule, Inc., priority 2006, dated 2011)

Assays:
Format in all cases: cell-based
[1] = tested on: DLD-1 human colon carcinoma cells; assay: MTS cell viability assay, DLD-1 human colon carcinoma cells; details: DLD-1, 4 h compound incubation, MTS, read-out: IC50 Values, Cancerous Cells, Colon DLD-1
[2] = tested on: PACA-2 human pancreatic carcinoma cells; assay: MTS cell viability assay, PACA-2 human pancreatic carcinoma cells; details: PACA-2, 4 h compound incubation, MTS, read-out: IC50 Values, Cancerous Cells, Pancreas PACA-2
[3] = tested on: A549 human lung carcinoma cells; assay: MTS cell viability assay, A549 human lung carcinoma cells; details: A549, 4 h compound incubation, MTS, read-out: IC50 Values, Cancerous Cells, Lung A549
[4] = tested on: NCM-460 normal colon epithelial cells; assay: MTS cell viability assay, NCM-460 normal colon epithelial cells; details: for IC50: Homo sapiens, NCM460, NCM-460, 4 h compound incubation, MTS, read-out: IC50 Values, Normal Cells, Colon NCM-460; for Fold Selectivity (NCM-460/DLD1): ratio of IC50 NCM-460 / DLD1
[5] = tested on: K-562 human leukemia cells; assay: MTS cell viability assay, K-562 human leukemia cells; details: K562, K-562, 4 h compound incubation, MTS, read-out: IC50 Values, Cancerous Cells, Leukemia K-562
[6] = tested on: DU-145 human prostate carcinoma cells; assay: MTS cell viability assay, DU-145 human prostate carcinoma cells; details: DU-145, 4 h compound incubation, MTS, read-out: IC50 Values, Cancerous Cells, Prostate DU-145

IC50 [1] [µM]	IC50 [2] [µM]	IC50 [3] [µM]	IC50 [5] [µM]	IC50 [6] [µM]	SMILES	IC50 [4] [µM]	Fold Selectivity (NCM-460/DLD1) [4]
1.49	1.33	7.57	1.74	1.91	O=C1C(=O)c2ccccc2C2=C1SCC1(CCN(C(=O)c3cccc(C(F)(F)F)c3)CC1)O2 [Compound 54, 1′-[3-(trifluoromethyl)benzoyl]spiro[naphtho 1,2-b][1,4]oxathiine-2,4′-piperidine-5,6-dione]	11	7.4
4.29	5.36	24.8	4.37	12.2	O=C1C(=O)c2ccccc2C2=C1SCC1(CCN(C(=O)c3ccncc3)CC1)O2 [Compound 57, 1′-isonicotinoylspiro[naphtho[1,2-b][1,4]oxathiine-2,4′-piperidine]-5,6-dione]	9.91	2.3
13.7	11	42.2	14.2	12.2	Cc1nn(-c2ccccc2)nc1C(=O)N1CCC2(CC1)CSC1=C(O2)c2ccccc2C(=O)C1=O [Compound 58, 1′-[(5-methyl-2-phenyl-2H-1,2,3-triazol-4-yl)carbonyl]spiro[naphtho[1,2-b][1,4]oxathiine-2,4′-piperidine]-5,6-dione]	79.9	5.8
4.1	4.24	16.8	4.24	10.4	O=C1C(=O)c2ccccc2C2=C1SCC1(CCN(C(=O)c3cccnc3)CC1)O2 [Compound 59, 1′-(pyridin-3-ylcarbonyl)spiro[naphtho[1,2-b][1,4]oxathiine-2,4′-piperidine]-5,6-dione]	10.7	2.6
2.21	2.39	8.59	3.38	4.16	Cc1cccc(C(=O)N2CCC3(CC2)CSC2=C(O3)c3ccccc3C(=O)C2=O)c1 [Compound 60, 1′-(3-methylbenzoyl)spiro[naphtho[1,2-b][1,4]oxathiine-2,4′-piperidine]-5,6-dione]	10.5	4.8
4.45	4.02	19.4	2.93	7.82	CS(=O)(=O)N1CCC2(CC1)CSC1=C(O2)c2ccccc2C(=O)C1=O [Compound 75, 1′-(methylsulfonyl)spiro[naphtho[1,2-b][1,4]oxathiine-2,4′-piperidine]-5,6-dione]	9.56	2.1
27.1	14.3	> 100	> 33.3	28	O=C1C(=O)c2ccccc2C2=C1SCC1(CCN(S(=O)(=O)c3ccc(Cl)c(Cl)c3)CC1)O2 [Compound 76, 1′-[(3,4-dichlorophenyl)sulfonyl]spiro[naphtho[1,2-b][1,4]oxathiine-2,4′-piperidine]-5,6-dione]	100	3.7
20.6	16.1	> 100	22.9	49.2	O=C1C(=O)c2ccccc2C2=C1SCC1(CCN(S(=O)(=O)c3c(Cl)nc4sccn34)CC1)O2 [Compound 77, 1′-[(6-chloroimidazo[2,1-b][1,3]thiazol-5-yl)sulfonyl]spiro[naphtho[1,2-b][1,4]oxathiine-2,4′-piperidine]-5,6-dione]	76.4	3.7
11.1	11.1	46.7	14.7	12.7	O=C1C(=O)c2ccccc2C2=C1SCC1(CCN(S(=O)(=O)c3cccs3)CC1)O2 [Compound 78, 1′-(2-thienylsulfonyl)spiro[naphtho[1,2-b][1,4]oxathiine-2,4′-piperidine]-5,6-dione]	30	2.7
8.26	7.26	23.5	5.92	11.9	Cn1cnc(S(=O)(=O)N2CCC3(CC2)CSC2=C(O3)c3ccccc3C(=O)C2=O)c1 [Compound 79, 1′-[(1-methyl-1H-imidazol-4-yl)sulfonyl]spiro[naphtho[1,2-b][1,4]oxathiine-2,4′-piperidine]-5,6-dione]	20.5	2.5
3.53	3.35	18.3	3.81	4.25	Cc1nn(C)c(C)c1S(=O)(=O)N1CCC2(CC1)CSC1=C(O2)c2ccccc2C(=O)C1=O [Compound 80, 1′-[(1,3,5-trimethyl-1H-pyrazol-4-yl)sulfonyl]spiro[naphtho[1,2-b][1,4]oxathiine-2,4′-piperidine]-5,6-dione]	12.9	3.7
12.3	12.1	> 100	12.3	13.7	Cc1nn(C)c(Cl)c1S(=O)(=O)N1CCC2(CC1)CSC1=C(O2)c2ccccc2C(=O)C1=O [Compound 81, 1′-[(5-chloro-1,3-dimethyl-1H-pyrazol-4-yl)sulfonyl]spiro[naphtho[1,2-b][1,4]oxathiine-2,4′-piperidine]-5,6-dione]	30.2	2.5
8.88	4.59	15.3	10	7.88	O=C1C(=O)c2ccccc2C2=C1SCC1(CCN(S(=O)(=O)c3cccc(Cl)c3)CC1)O2 [Compound 82, 1′-[(3-chlorophenyl)sulfonyl]spiro[naphtho[1,2-b][1,4]oxathiine-2,4′-piperidine]-5,6-dione]	21.1	2.4
4.69	6.38	16.9	6.83	10.3	O=C1C(=O)c2ccccc2C2=C1SCC1(CCN(C(=O)Nc3ccccc3)CC1)O2 [Compound 84, 5,6-dioxo-N-phenyl-5,6-dihydro-1′H-spiro[naphtho[1,2-b][1,4]oxathiine-2,4′-piperidine]-1′-carboxamide]	19.1	4.1
1.29	1.14	6.38	1.32	1.88	O=C1C(=O)c2ccccc2C2=C1SCC1(CCN(C(=O)Nc3ccc(F)cc3)CC1)O2 [Compound 85, N-(4-fluorophenyl)-5,6-dioxo-5,6-dihydro-1′H-spiro[naphtho[1,2-b][1,4]oxathiine-2,4′-piperidine]-1′-carboxamide]	3.31	2.6
1.48	1.33	3.84	2.17	1.03	O=C1C(=O)c2ccccc2C2=C1SCC1(CCN(C(=O)Nc3cccc(C(F)(F)F)c3)CC1)O2 [Compound 86, 5,6-dioxo-N-[3-(trifluoromethyl)phenyl]-5,6-dihydro-1′H-spiro[naphtho[1,2-b][1,4]oxathiine-2,4′-piperidine]-1′-carboxamide]	10.1	6.8
3.04	1.34	3.31	3.11	0.888	O=C1C(=O)c2ccccc2C2=C1SCC1(CCN(C(=O)Nc3ccc(Cl)c(Cl)c3)CC1)O2 [Compound 87, N-(3,4-dichlorophenyl)-5,6-dioxo-5,6-dihydro-1′H-spiro[naphtho[1,2-b][1,4]oxathiine-2,4′-piperidine]-1′-carboxamide]	30.5	10.0
1.49	1.85	13.3	2.14	4.33	CN(C)c1ccc(NC(=O)N2CCC3(CC2)CSC2=C(O3)c3ccccc3C(=O)C2=O)cc1 [Compound 88, N-[4-(dimethylamino)phenyl]-5,6-dioxo-5,6-dihydro-1′H-spiro[naphtho[1,2-b][1,4]oxathiine-2,4′-piperidine]-1′-carboxamide]	6.08	4.1
1.6	1.35	10.2	1.45	2.87	Cc1ccc(NC(=O)N2CCC3(CC2)CSC2=C(O3)c3ccccc3C(=O)C2=O)cn1 [Compound 91, N-(6-methylpyridin-3-yl)-5,6-dioxo-5,6-dihydro-1′H-spiro[naphtho[1,2-b][1,4]oxathiine-2,4′-piperidine]-1′-carboxamide]	9	5.6
4.01	4.29	31	4.54	9.11	O=C1C(=O)c2ccccc2C2=C1SCC1(CCN(C(=O)Oc3ccccc3)CC1)O2 [Compound 92, phenyl 5,6-dioxo-5,6-dihydro-1′H-spiro[naphtho[1,2-b][1,4]oxathiine-2,4′-piperidine]-1′-carboxylate]	13.1	3.3
1.68	3.55	4.87	2.46	4.25	CC(C)COC(=O)N1CCC2(CC1)CSC1=C(O2)c2ccccc2C(=O)C1=O [Compound 93, isobutyl 5,6-dioxo-5,6-dihydro-1′H-spiro[naphtho[1,2-b][1,4]oxathiine-2,4′-piperidine]-1′-carboxylate]	10.8	6.4
